Measurements reported in US9902713B2, “Neuroprotective compounds and use thereof” (BOARD OF REGENTS OF THE UNIVERSITY OF TEXAS SYSTEM, priority 2013, dated 2018).

How the values were obtained:
[1] = test system: intracellular levels of NAD; assay: Intracellular NAD levels by mass spectrometry; type: cell-based; conditions: 3 uM, 12 hrs
Description: Cultured cells were exposed to varying levels of “A20” (X-axis) for 12 hrs. Intracellular levels of NAD (Y-axis) were monitored by mass spectrometry.

[2] = test system: cultured cortical neurons; assay: 6-OHDA toxicity in cultured neurons (MTT); type: cell-based; conditions: 10 μM compound
Protocol: (§1) A rat model of Parkinson's disease, incuded by 6-hydroxydopamine (6-OHDA) was used to test various compounds As shown in FIGS. 33A-33D, P7C3-S243 protects cultured hippocampal and cortical neurons from 6-OHDA toxicity. […] (FIG. 33B) The average number of hippocampal neurons in the 10 μM P7C3-S243 treatment group was not different from the average number of hippocampal neurons treated with medium alone or with DMSO+Ascorbic acid (one-way ANOVA). […] The average number of cortical neurons in the 10 μM P7C3-S243 treatment group was not different from the average number of cortical neurons treated with medium alone or with DMSO+Ascorbic acid (one-way ANOVA). Experiments were performed two independent times, with 8-12 replicates of each sample both times.

[3] = test system: cultured hippocampal neurons; assay: 6-OHDA toxicity in cultured neurons (MTT); type: cell-based; conditions: 10 μM compound
Protocol: as §1

in vivo = conditions: mouse; for Kp: brain and plasma
[4] = Pharmacokinetic analysis, plasma and brain levels
[5] = test system: hippocampal CA1 neurons, myelin and mitochondria; assay: Toluidine blue staining and TEM of hippocampus after blast-injury; type: in vivo, mice
Protocol: To further examine hippocampal structural pathology, we turned to ultrathin ([…]) section histology using toluidine blue staining, as well as transmission electron microscopy (TEM) (FIG. 31). […] In blast-injured animals, however, we observed accumulation of chromatolytic and pyknotic neurons in the CA1 stratum pyramidale, accompanied by decreased dendritic extensions in the stratum radiatum, indicating general ongoing pathologic processes associated with neurodegeneration and consistent with our electrophysiologic data in FIG. 17.
The stratum radiatum is where CA3 Schaeffer collateral axons synapse with dendrites of CA1 pyramidal cells. This was the circuit we investigated electrophysiologically (FIG. 17), and we next turned to TEM to further characterize blast-injury induced axonal degeneration. […] These axons contained intact and healthy-appearing mitochondria.
Toluidine blue staining and transmission electron microscopy (TEM). Mice were transcardially perfused with Karnovsky's fixative solution (2% formaldehyde, 2.5% glutaraldehyde, 0.2M sodium cacodylate buffer, 1 mM CaCl2, 2 mM MgCl2, and 42.8 mM NaCl, pH 7.4) two weeks after either sham- or blast-Injury and with or without specified compound treatment. Harvested brains were incubated in Karnovsky's overnight at 4° C. Whole brains were cut in the horizontal plane (100 μm) using a vibratome (Leica 1500). Sections that contained the hippocampus were selected, washed with 0.1M sodium cacodylate buffer and then post fixed with 1% osmium fixative for 1 hr. After washing in 0.1M sodium cacodylate buffer, sections were dehydrated in a series of ethanol (50%, 75%, 95% and 100% ethanol) followed by embedding in EPON resin overnight at 65° C. For toluidine blue staining, semithin sections (1 μm) were cut with an ultramicrotome (Leica UC6) and stained with toluidine blue. Pictures were taken using an upright microscope (Zeiss Axio Imager.M2) with a color camera (AxioCam ICc5). For TEM, ultrathin sections (60 nm) adjacent to the semithin sections were cut with an ultramicrotome, loaded onto a Formvar 200-mesh Ni grid, and counterstained with uranyl acetate and lead citrate. Specimens were examined using a JEOL JEM 1230 electron microscope with a Gatan UltraScan 1000 2 k×2 k CCD camera. See also FIG. 31.

hERG = hERG (Homo sapiens, UniProt Q12809); assay: hERG patch clamp assay
[6] = blast-injured, oral 0.3 mg/kg/day

Chain of hERG (Q12809 whole entry): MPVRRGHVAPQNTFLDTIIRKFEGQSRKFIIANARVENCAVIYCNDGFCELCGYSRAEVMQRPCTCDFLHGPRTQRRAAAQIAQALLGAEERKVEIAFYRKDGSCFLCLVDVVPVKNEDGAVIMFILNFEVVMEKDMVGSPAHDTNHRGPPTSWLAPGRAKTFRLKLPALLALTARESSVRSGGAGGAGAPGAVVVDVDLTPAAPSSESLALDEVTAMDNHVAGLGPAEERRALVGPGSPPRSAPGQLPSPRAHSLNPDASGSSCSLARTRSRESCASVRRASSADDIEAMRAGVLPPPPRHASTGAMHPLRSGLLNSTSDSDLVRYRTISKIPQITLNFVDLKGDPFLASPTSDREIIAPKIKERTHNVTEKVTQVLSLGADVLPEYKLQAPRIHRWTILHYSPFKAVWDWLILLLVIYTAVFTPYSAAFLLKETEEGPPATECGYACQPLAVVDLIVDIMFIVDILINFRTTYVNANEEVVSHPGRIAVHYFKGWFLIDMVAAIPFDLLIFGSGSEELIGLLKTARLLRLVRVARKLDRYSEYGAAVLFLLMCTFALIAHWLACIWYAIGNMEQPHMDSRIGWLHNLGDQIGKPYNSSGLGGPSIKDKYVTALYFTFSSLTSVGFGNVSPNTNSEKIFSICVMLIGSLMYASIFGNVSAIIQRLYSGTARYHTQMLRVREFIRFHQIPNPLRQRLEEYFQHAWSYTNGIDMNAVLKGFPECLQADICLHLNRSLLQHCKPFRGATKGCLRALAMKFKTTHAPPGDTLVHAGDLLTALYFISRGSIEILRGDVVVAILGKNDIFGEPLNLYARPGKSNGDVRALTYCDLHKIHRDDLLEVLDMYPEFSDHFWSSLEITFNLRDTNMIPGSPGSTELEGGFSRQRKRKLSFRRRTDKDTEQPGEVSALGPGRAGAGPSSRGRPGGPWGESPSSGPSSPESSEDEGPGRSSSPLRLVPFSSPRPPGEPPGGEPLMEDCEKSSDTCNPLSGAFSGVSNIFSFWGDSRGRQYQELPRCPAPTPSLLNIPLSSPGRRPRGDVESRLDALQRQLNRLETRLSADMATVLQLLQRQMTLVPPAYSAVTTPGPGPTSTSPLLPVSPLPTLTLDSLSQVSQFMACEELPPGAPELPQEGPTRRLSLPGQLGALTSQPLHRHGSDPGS

COc1cccc(NCC(F)Cn2c3ccc(Br)cc3c3cc(Br)ccc32)c1 (stereo not shown) [P7C3-A20, N-(3-(3,6-dibromo-9H-carbazol-9-yl)-2-fluoropropyl)-3-methoxyaniline]
maximal enhancement of NAD [1]: 20-30%

COc1cccc(NCC(F)Cn2c3ccc(Br)cc3c3cc(Br)ccc32)n1 (racemic) [P7C3-S243, N-(3-(3,6-dibromo-9H-carbazol-9-yl)-2-fluoropropyl)-6-methoxypyridin-2-amine]
average number of neurons vs medium or DMSO+Ascorbic acid [2]: not different | protection (MTT) ([2]; 50 μM and 75 μM 6-OHDA): significant protection | average number of neurons vs medium or DMSO+Ascorbic acid [3]: not different | protection (MTT) ([3]; 50 μM 6-OHDA, 24 hrs): significant protection | Kp (in vivo; ip, 10 mg/kg): 0.45 | Kp (in vivo; ip, 20 mg/kg): 0.28 | Kp (in vivo; iv, 10 mg/kg): 1.1 | Kp (in vivo; po, 20 mg/kg): 0.81 | bioavailability (in vivo; brain, po, 20 mg/kg): 58% | bioavailability (in vivo; plasma, ip, 20 mg/kg): 90% | bioavailability (in vivo; plasma, po, 20 mg/kg): 38% | % F (brain) ([4]; IP 10 mg/kg): 28% | % F (plasma) ([4]; IP 10 mg/kg): 66% | AUC(brain) ([4]; IP 10 mg/kg): 189 ± 35 µg·min/g | T1/2 ([4]; IP 10 mg/kg): >24 h | % F (brain) ([4]; IP 20 mg/kg): 48% | AUC(brain) ([4]; IP 20 mg/kg): 319 ± 68 µg·min/g | T1/2 ([4]; IP 20 mg/kg): 15 h | AUC(brain) ([4]; IV 10 mg/kg): 671 ± 14 µg·min/g | T1/2 ([4]; IV 10 mg/kg): 7.4 h | AUC(brain) ([4]; PO 20 mg/kg): 388 ± 29 µg·min/g | T1/2 ([4]; PO 20 mg/kg): 9.6 h | metabolic stability in vivo ([4]; all routes of administration): metabolically stable | brain levels ([4]; following IP dosing): dose-proportional increase

COc1cccc(NCC(F)Cn2c3ccc(Br)cc3c3cc(Br)ccc32)n1 (single isomer, unassigned; (-)) [(−)-P7C3-S243, (−)-N-(3-(3,6-dibromo-9H-carbazol-9-yl)-2-fluoropropyl)-6-methoxypyridin-2-amine]
CA1 histology (toluidine blue) [5, 6]: these same pathologic features were present | axons and neuronal mitochondria (TEM) [5, 6]: degenerating axons with characteristic unraveling of the myelin sheath | axons and neuronal mitochondria (TEM) ([5]; blast-injured, oral 3 mg/kg/d): partial resolution of pathological signs | CA1 histology (toluidine blue) ([5]; blast-injured, oral 3 mg/kg/day): partially preserve dendritic extension | CA1 histology (toluidine blue) ([5]; blast-injured, oral 30 mg/kg/d): fully preserved all structural aspects | axons and neuronal mitochondria (TEM) ([5]; blast-injured, oral 30 mg/kg/d): full protection | CA1 histology (toluidine blue) ([5]; sham-injured, oral 30 mg/kg/d): did not change | axons and neuronal mitochondria (TEM) ([5]; sham-injury, oral 30 mg/kg/d): normally myelinated axons | inhibition at 50 µM (hERG): < 15%
